Cc1cnc(NC(=O)C2=C(O)c3ccccc3S(=O)(=O)N2C)s1
solubility (mole fraction) (in PEG-400, 298.15 K): 0.00932
solubility (mole fraction) (in PEG-400, 303.15 K): 0.0096
solubility (mole fraction) (in PEG-400, 308.15 K): 0.0101
solubility (mole fraction) (in PEG-400, 313.15 K): 0.0104
solubility (mole fraction) (in PEG-400, 318.15 K): 0.0106
solubility (mole fraction) (in water, 298.15 K): 4.24e-07
solubility (mole fraction) (in water, 303.15 K): 6.28e-07
solubility (mole fraction) (in water, 308.15 K): 9.48e-07
solubility (mole fraction) (in water, 313.15 K): 1.34e-06
solubility (mole fraction) (in water, 318.15 K): 1.93e-06
